Results taken from patent publication US7749992B2, “Compounds and methods for treating dislipidemia” (Eli Lilly and Company, priority 2003, dated 2010).

Experiments:
human CETP = biological target: T1, human CETP (Homo sapiens, UniProt P11597); assay: In vitro CETP inhibitor assay: SPA assay; type: biochemical; conditions: CETP produced by AV-12 cells expressing human CETP; [3H]cholesterol ester transfer from HDL to biotinylated LDL; 30-minute incubation at 37 C; HEPES-NaCl based buffer; read-out: Inhibition of CETP Activity (SPA assay) IC50
T1 construct: made in house; host or cells: AV-12 cells (engineered to express human CETP)
T1 sequence (P11597 18-493): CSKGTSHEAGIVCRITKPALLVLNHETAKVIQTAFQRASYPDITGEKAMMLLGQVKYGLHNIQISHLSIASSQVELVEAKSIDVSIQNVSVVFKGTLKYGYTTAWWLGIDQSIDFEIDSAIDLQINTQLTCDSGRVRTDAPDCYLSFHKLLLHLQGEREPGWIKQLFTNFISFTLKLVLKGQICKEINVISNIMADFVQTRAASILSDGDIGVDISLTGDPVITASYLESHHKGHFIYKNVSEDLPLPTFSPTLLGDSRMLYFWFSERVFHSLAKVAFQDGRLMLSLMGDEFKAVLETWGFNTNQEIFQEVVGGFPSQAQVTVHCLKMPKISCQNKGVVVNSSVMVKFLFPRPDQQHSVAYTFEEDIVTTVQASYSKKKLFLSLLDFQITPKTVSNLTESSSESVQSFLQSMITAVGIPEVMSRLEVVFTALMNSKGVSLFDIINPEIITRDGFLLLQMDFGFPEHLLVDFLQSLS
Procedure: An in vitro scintillation proximity assay (SPA) has been used to test the ability of compounds of this invention to inhibit the transfer of radiolabeled cholesterol esters between HDL and LDL. This assay monitors the inhibition of the transfer of [^3H]cholesterol esters from HDL (Amersham) to biotinylated LDL (Amersham) by a CETP source. CETP produced by AV-12 cells that have been created to express human CETP has been used to mediate the transfer. After a 30-minute incubation at 37 C in which the radiolabeled cholesterol ester is transferred in a HEPES-NaCl based buffer, the reaction is stopped and the biotinylated LDL is bound to streptavidin/scintillant coated SPA beads (Amersham). Then the radioactive signal is measured in a Packard 96-well scintillation TopCounter with window settings fully open. Compounds of this invention can be added to the reaction mixture in an appropriate solvent to assess their ability to inhibit the transfer of the radiolabeled cholesterol esters by CETP, represented by a decrease in radioactive signal. The activity transferred in the reaction mixtures with control solvents is rated as 100% transfer. The compound concentration at which the activity is midway between 100% and the lowest recorded activity is indicated as the IC50 value. A three-parameter fixed top logistic curve-fitting algorithm is used to generate the IC50 value.

[1] = tested on: transgenic mice that express both human CETP and human apolipoprotein A-1; assay: Assay of plasma lipids in vivo (elevation of HDL cholesterol); conditions: single oral dose 30 mg/kg; at 8 hr; serum HDL cholesterol relative to control
Procedure: Activity of compounds of this invention in vivo can be determined by the level of elevation of HDL cholesterol relative to control by a given amount of compound in a CETP-containing animal species. A strain of transgenic mice that express both human CETP and human apolipoprotein A-1 (Taconic, Germantown, N.Y.) is used to test compounds of this invention. Test compounds are administered once orally in selected aqueous or oil based vehicles. At various times after dosing, ranging from 4 h to 24 h, blood is obtained. Blood is allowed to clot and serum is obtained by centrifugation. HDL cholesterol levels in the serum is determined by HDL-C plus reagents (Roche/Hitachi, Indianapolis, Ind.) with a clinical chemistry analyzer (Roche/Hitachi, Indianapolis, Ind.). Additional serum lipids can be analyzed by enzymatic methods. Lipids in the VLDL, LDL and HDL fractions are analyzed by enzymatic methods after precipitation or size exclusion chromatography.

IC50 (human CETP) [nM] | Structure (SMILES) | % HDL cholesterol increase [1] [%]
68 | CC(=O)N(Cc1cc(C(F)(F)F)cc(C(F)(F)F)c1)[C@H]1CCCN(C(=O)OC(C)C)c2cc(C(F)(F)F)c(C)cc21 [Example 111, (S)-5-[Acetyl-(3,5-bis-trifluoromethyl-benzyl)-amino]-7-methyl-8-trifluoromethyl-2,3,4,5-tetrahydro-benzo[b]azepine-1-carboxylic acid isopropyl ester] | –
65 | CC(=O)N(Cc1cc(C(F)(F)F)cc(C(F)(F)F)c1)C1CCCN(C(=O)OC(C)(C)C)c2cc(C(F)(F)F)c(C)cc21 (stereo not shown) [Example 117, 5-[Acetyl-(3,5-bis-trifluoromethyl-benzyl)-amino]-7-methyl-8-trifluoromethyl-2,3,4,5-tetrahydro-benzo[b]azepine-1-carboxylic acid tert-butyl ester] | –
42 | CC(=O)N(Cc1cc(C(F)(F)F)cc(C(F)(F)F)c1)[C@H]1CCCN(C(=O)OC(C)(C)C)c2cc(C(F)(F)F)c(C)cc21 [Example 119, (S)-5-[Acetyl-(3,5-bis-trifluoromethyl-benzyl)-amino]-7-methyl-8-trifluoromethyl-2,3,4,5-tetrahydro-benzo[b]azepine-1-carboxylic acid tert-butyl ester] | 123

The remaining lines, values behind:

Structure (SMILES) | IC50 (human CETP) [nM] | % HDL cholesterol increase [1] [%]
CC(=O)N(Cc1cc(C(F)(F)F)cc(C(F)(F)F)c1)C1CCCN(C(=O)OC(C)C)c2c1ccc1c2CCC1 (racemic) [Example 129, (+/−)-6-[Acetyl-(3,5-bis-trifluoromethyl-benzyl)-amino]-2,3,6,7,8,9-hexahydro-1H-10-aza-cyclohepta[e]indene-10-carboxylic acid isopropyl ester] | 54 | –
CC(=O)N(Cc1cc(C(F)(F)F)cc(C(F)(F)F)c1)C1CCCN(C(=O)OC(C)C)c2ccccc21 (stereo not shown) [Example 1, 5-[Acetyl-(3,5-bis-trifluoromethyl-benzyl)-amino]-2,3,4,5-tetrahydro-benzo[b]azepine-1-carboxylic acid isopropyl ester] | 293 | –
CC(=O)N(Cc1cc(C(F)(F)F)cc(C(F)(F)F)c1)C1CCCN(C(=O)OC2CCCC2)c2cc(OC(F)(F)F)c(C)cc21 (stereo not shown) [Example 182, 5-[Acetyl-(3,5-bis-trifluoromethyl-benzyl)-amino]-7-methyl-8-trifluoromethoxy-2,3,4,5-tetrahydro-benzo[b]azepine-1-carboxylic acid cyclopentyl ester] | 191 | –
